Test results taken from patent publication US4686229A, “1,4-dihydropyridines” (Bayer Aktiengesellschaft, priority 1984, dated 1987).

The molecules below were run on synthesis of PGI2 (assay: Prostacyclin stimulation in whole blood (collagen-induced PGI2 formation, 6-keto-PGF1 alpha by radioimmunoassay)).
Assay type: cell-based
From the text: The 1,4-dihydropyridines to be used according to the invention also stimulate the synthesis of PGI2. In contrast to thromboxane, which has a vasoconstricting action and initiates platelet aggregation, PGI^2 has a vasodilating action and inhibits platelet aggregation.
The formation of PGI2 can be induced in whole blood by collagen. The endoperoxides formed in platelets are probably converted into PGI2 by […]. The stable end product of the PGI2 conversion, 6-keto-PGF1 α, is determined radioimmunologically.

Row | SMILES | Stimulation (%) (prostacyclin stimulation)
1 | CC1=C(C(=O)OCCCc2cccnc2)C(c2ccc(CO)cc2)C(C(=O)OCCCc2cccnc2)=C(C)N1 [Example 1, Di-3-(pyrid-3-yl)-propyl 1,4-dihydro-4-(4-hydroxymethylphenyl)-2,6-dimethylpyridine-3,5-dicarboxylate] | 158%
2 | CC1=C(C(=O)OCCCc2cccnc2)CC(C(=O)OCCCc2cccnc2)=C(C)N1 [Example 4, Di-3-(pyrid-3-yl)-propyl 1,4-dihydro-2,6-dimethylpyridine-3,5-dicarboxylate] | ~ 50%
3 | CC1=C(C(=O)OCCCc2cccnc2)C(c2ccc(C(=O)NCc3cccnc3)cc2)C(C(=O)OCCCc2cccnc2)=C(C)N1 [Example 10, Di-3-(pyrid-3-yl)-propyl 1,4-dihydro-2,6-dimethyl-4-[4-N-(pyrid-3-ylmethyl)-carbamoylphenyl]-pyridine-3,5-dicarboxylate] | ~ 50%
4 | COC(=O)C1C(C(=O)OCCCc2cccnc2)=C(C)NC(C)=C1C(=O)OCCCc1cccnc1 [Example 5, 4-Methyl 3,5-di-3-(pyrid-3-yl)-propyl 1,4-dihydro-2,6-dimethyl-pyridine-3,4,5-tricarboxylate] | 100%
5 | CC1=C(C(=O)OCCCc2cccnc2)C(c2ccc(C(=O)NCc3ccco3)cc2)C(C(=O)OCCCc2cccnc2)=C(C)N1 [Example 11, Di-3-(pyrid-3-yl)-propyl 4-[4-N-(2-furylmethyl)-carbamoylphenyl]-1,4-dihydro-2,6-dimethyl-pyridine-3,5-dicarboxylate] | ~ 100%
